The compounds below were run against T1, recombinant α1β2γ2 GABAA receptors (Homo sapiens, UniProt P14867+P47870) (assay: Patch clamp electrophysiology, QPatch, LTK cells). Details: 10 μM test article, GABA EC20 = 2 μM, in cremophor, read-out: GABA (α1β2γ2) Qpatch in Ltk, % efficacy at 10 μM.
T1 construct: expressed in transfected cells
T1 sequence (P14867 28-456): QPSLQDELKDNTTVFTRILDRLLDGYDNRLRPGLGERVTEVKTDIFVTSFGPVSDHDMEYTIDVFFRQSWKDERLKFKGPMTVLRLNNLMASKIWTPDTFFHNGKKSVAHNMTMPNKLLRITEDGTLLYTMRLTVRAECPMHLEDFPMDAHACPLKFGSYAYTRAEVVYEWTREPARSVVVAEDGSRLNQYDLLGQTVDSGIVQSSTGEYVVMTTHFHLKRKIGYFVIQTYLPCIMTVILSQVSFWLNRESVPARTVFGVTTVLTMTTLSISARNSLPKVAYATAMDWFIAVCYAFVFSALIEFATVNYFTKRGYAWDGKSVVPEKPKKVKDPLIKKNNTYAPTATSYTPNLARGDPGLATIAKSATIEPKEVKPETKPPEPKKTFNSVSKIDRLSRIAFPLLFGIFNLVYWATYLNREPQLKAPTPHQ
T1 sequence (P47870 25-512 limits assumed): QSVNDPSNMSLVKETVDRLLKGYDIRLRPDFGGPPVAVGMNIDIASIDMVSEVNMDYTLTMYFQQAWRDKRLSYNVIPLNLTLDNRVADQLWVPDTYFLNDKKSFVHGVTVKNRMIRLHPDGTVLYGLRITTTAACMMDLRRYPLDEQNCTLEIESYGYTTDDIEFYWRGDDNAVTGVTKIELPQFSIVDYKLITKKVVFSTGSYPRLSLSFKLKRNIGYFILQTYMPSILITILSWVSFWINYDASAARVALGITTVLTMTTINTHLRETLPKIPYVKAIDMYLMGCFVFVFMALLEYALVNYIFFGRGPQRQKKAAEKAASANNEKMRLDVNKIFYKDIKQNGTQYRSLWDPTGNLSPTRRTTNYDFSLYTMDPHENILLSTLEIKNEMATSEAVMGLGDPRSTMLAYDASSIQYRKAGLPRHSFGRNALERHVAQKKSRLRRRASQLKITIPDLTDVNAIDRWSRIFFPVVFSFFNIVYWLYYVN
T1 sequence (P18507 40-475 partner): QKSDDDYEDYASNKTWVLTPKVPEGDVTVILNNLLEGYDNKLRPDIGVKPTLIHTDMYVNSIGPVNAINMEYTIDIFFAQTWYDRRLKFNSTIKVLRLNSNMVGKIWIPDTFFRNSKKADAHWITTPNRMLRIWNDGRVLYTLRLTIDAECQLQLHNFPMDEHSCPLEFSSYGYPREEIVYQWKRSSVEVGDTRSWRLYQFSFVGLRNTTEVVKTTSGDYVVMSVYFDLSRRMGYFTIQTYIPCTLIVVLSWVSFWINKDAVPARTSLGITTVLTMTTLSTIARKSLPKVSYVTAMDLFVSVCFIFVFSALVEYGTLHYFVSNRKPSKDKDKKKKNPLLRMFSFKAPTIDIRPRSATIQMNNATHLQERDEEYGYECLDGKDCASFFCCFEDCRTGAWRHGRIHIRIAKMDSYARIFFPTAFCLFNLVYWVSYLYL
Format: cell-based
`C[C@@]1(O)CC[C@H]2[C@H](CC[C@@H]3[C@@H]2CC[C@]2(C)[C@@H](C(=O)Cn4cc(C#N)nn4)CC[C@@H]32)C1` [SA-20] gave an Emax at 10 µM of 100 to 500%.

Same assay, conditions: 10 μM test article, GABA EC20 = 2 μM, read-out: GABA (α1β2γ2) Qpatch in Ltk, % efficacy at 10 μM
`Cc1cn(CC(=O)[C@H]2CC[C@H]3[C@@H]4CC[C@@H]5C[C@](C)(O)CC[C@@H]5[C@H]4CC[C@]23C)nn1` [SA-5] was tested, and the Emax at 10 µM was > 500%.
`CCOC[C@@]1(O)CC[C@H]2[C@@H](CC[C@@H]3[C@@H]2CC[C@]2(C)[C@@H](C(=O)Cn4nccn4)CC[C@@H]32)C1` [SQ-2] showed an Emax at 10 µM of 100 to 500%.
`CC[C@@]1(O)CC[C@H]2[C@H](CC[C@@H]3[C@@H]2CC[C@]2(C)[C@@H](C(=O)Cn4ncnn4)CC[C@@H]32)C1` [SE-2] was tested, and the Emax at 10 µM was > 500%.
In the case of `CCOC[C@@]1(O)CC[C@H]2[C@@H](CC[C@@H]3[C@@H]2CC[C@]2(C)[C@@H](C(=O)Cn4nnc(C)n4)CC[C@@H]32)C1` [SQ-6], the Emax at 10 µM is reported as 100 to 500%.
In the case of `CCOC[C@@]1(O)CC[C@H]2[C@H](CC[C@@H]3[C@@H]2CC[C@]2(C)[C@@H](C(=O)Cn4nnnc4C)CC[C@@H]32)C1` [SO-1], the Emax at 10 µM is reported as 100 to 500%.
For `C[C@@]1(O)CC[C@H]2[C@H](CC[C@@H]3[C@@H]2CC[C@]2(C)[C@@H](C(=O)Cn4nnc(C(F)(F)F)n4)CC[C@@H]32)C1` [SA-8], the Emax at 10 µM was 100 to 500%.
`Cc1nnn(CC(=O)[C@H]2CC[C@H]3[C@@H]4CC[C@H]5C[C@@](O)(CF)CC[C@@H]5[C@H]4CC[C@]23C)n1` [SD-3] was tested, and the Emax at 10 µM was 100 to 500%.
`Cc1cnn(CC(=O)[C@H]2CC[C@H]3[C@@H]4C[C@@H](F)[C@H]5C[C@](C)(O)CC[C@@H]5[C@H]4CC[C@]23C)n1` [SV-7] showed an Emax at 10 µM of 100 to 500%.
Compound `Cc1cnnn1CC(=O)[C@H]1CC[C@H]2[C@@H]3C[C@@H](F)[C@H]4C[C@](C)(O)CC[C@@H]4[C@H]3CC[C@]12C` [SV-9] has an Emax at 10 µM of 100 to 500%.
Work on `CCOC[C@@]1(O)CC[C@H]2[C@@H](CC[C@@H]3[C@@H]2CC[C@]2(C)[C@@H](C(=O)Cn4cnnn4)CC[C@@H]32)C1` [SQ-4] yielded an Emax at 10 µM of 100 to 500%.
In the case of `CC[C@@]1(O)CC[C@H]2[C@@H](CC[C@@H]3[C@@H]2CC[C@]2(C)[C@@H](C(=O)Cn4nnc(C)n4)CC[C@@H]32)C1` [SP-5], the Emax at 10 µM is reported as 100 to 500%.
Work on `Cc1nnnn1CC(=O)[C@H]1CC[C@H]2[C@@H]3CC[C@@H]4C[C@@](O)(C(F)F)CC[C@@H]4[C@H]3CC[C@]12C` [SG-3] yielded an Emax at 10 µM of 100 to 500%.
`Cc1cn(CC(=O)[C@H]2CC[C@H]3[C@@H]4C[C@@H](F)[C@H]5C[C@](C)(O)CC[C@@H]5[C@H]4CC[C@]23C)nn1` [SV-8] was tested, and the Emax at 10 µM was > 500%.
With `COC[C@@]1(O)CC[C@H]2[C@H](CC[C@@H]3[C@@H]2CC[C@]2(C)[C@@H](C(=O)Cn4nnnc4C)CC[C@@H]32)C1` [SM-3] the Emax at 10 µM was > 500%.
With `COC[C@@]1(O)CC[C@H]2[C@H](CC[C@@H]3[C@@H]2CC[C@]2(C)[C@@H](C(=O)Cn4nnc(C)n4)CC[C@@H]32)C1` [SM-4] the Emax at 10 µM was > 500%.
With `CCOC[C@@]1(O)CC[C@H]2[C@@H](CC[C@@H]3[C@@H]2CC[C@]2(C)[C@@H](C(=O)Cn4ncnn4)CC[C@@H]32)C1` [SQ-3] the Emax at 10 µM was > 500%.
Compound `CC[C@@]1(O)CC[C@H]2[C@@H](CC[C@@H]3[C@@H]2CC[C@]2(C)[C@@H](C(=O)Cn4ncnn4)CC[C@@H]32)C1` [SP-3] has an Emax at 10 µM of 100 to 500%.
For `CC[C@@]1(O)CC[C@H]2[C@H](CC[C@@H]3[C@@H]2CC[C@]2(C)[C@@H](C(=O)Cn4cnnn4)CC[C@@H]32)C1` [SE-1], the Emax at 10 µM was 100 to 500%.
In the case of `Cc1nnnn1CC(=O)[C@H]1CC[C@H]2[C@@H]3CC[C@H]4C[C@@](O)(CF)CC[C@@H]4[C@H]3CC[C@]12C` [SD-2], the Emax at 10 µM is reported as 100 to 500%.
With `Cc1nnn(CC(=O)[C@H]2CC[C@H]3[C@@H]4CC[C@@H]5C[C@@](O)(C(F)F)CC[C@@H]5[C@H]4CC[C@]23C)n1` [SG-4] the Emax at 10 µM was 100 to 500%.
